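Interpolation was linear, between the two tested concentrations surrounding the appropriate level; five concentrations were tested over 48 hours in 96-well plates. At the GI50, growth is halved.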 Activity calls are given as the source filed them. Rule as the data show it: active = GI50 up to about 1.1 µM and inactive = higher.

Test systems include BT-549; XF498; DMS-114; M19-MEL; HOP-18; DMS-273; SNB-78; DLD-1; RXF 631.
What all share (test): inhibition of tumour cell growth, NCI panel, 48 h

For `COC(=O)C1=C(C(=O)OC)SC2(S1)C(C(=O)OC)=C(C(=O)OC)Sc1c2ssc1=O`, in the test on BT-549, the GI50 is 1.5 µM (inactive).

For the compound `NCCNCC1CCNCC1`, the GI50 in the test on BT-549 was > 100 µM (inactive).

For the compound `N#Cc1c(-c2ccccc2)c(/C=N/c2ccc(Cl)cc2)c(=O)n2c1[nH]c1ccccc12`, the GI50 in the test on BT-549 was > 100 µM (inactive).

For the compound `CC(C)C[C@H]1[C@@H](OCc2ccccc2)COS(=O)(=O)N1[C@H](C)c1ccccc1`, in the test on BT-549, the GI50 is > 58.2 µM (inactive).

Regarding `C=C(C)C12CC3CC/C(=N/O)C(C1)C3(N1CCOCC1)C/C2=N/O` (configuration not stated), the GI50 in the test on BT-549 is > 100 µM (inactive).

As for `CC(/C=N/N=C1NCCCN1)=N\N=C1NCCCN1`, the GI50 with BT-549 was > 100 µM (inactive).

For the compound `O=C(CCCN1CCC(Nc2ccc(F)cc2)(c2nnnn2C2CCCCC2)CC1)c1ccc(F)cc1`, the GI50 in the test on BT-549 was 16.5 µM (inactive).

As to `c1ccc2nn(C3CCCO3)nc2c1` (configuration not stated), the GI50 in the test with BT-549 is > 100 µM (inactive).

As for `COc1cc(/C=N\c2nc(-c3ccc(NS(=O)(=O)c4ccc(Cl)c(OC)c4)cc3)cs2)ccc1O`, the GI50 with BT-549 is 28.8 µM (inactive).

Turning to `O=C1C(Br)=C(C2=CC(=P(c3ccccc3)(c3ccccc3)c3ccccc3)C=C2)C(=O)C(Br)=C1C1=CC(=P(c2ccccc2)(c2ccccc2)c2ccccc2)C=C1`, in the test on BT-549, the GI50 was > 100 µM (inactive).

In the case of `O=P(Nc1ccccc1)(Oc1ccccc1)N1CCN(c2ccccc2)CC1` (configuration not stated), in the test on BT-549, the GI50 was 16 µM (inactive).

In the case of `O=C(NC12CC3CC(CC(C3)C1)C2)C(=O)c1c[nH]c2ccc([N+](=O)[O-])cc12`, the GI50 is 18.2 µM (inactive) with XF498; 43.9 µM (inactive) with DMS-114; 60 µM (inactive) with M19-MEL; 28.6 µM (inactive) with HOP-18; 5.66 µM (inactive) in the test on DMS-273.

For the compound `CC(N/N=N/c1ccc(-c2nc3ccccc3[nH]2)cc1)C(=O)O` (configuration not stated), the GI50 with BT-549 is 3.73 µM (inactive).

Regarding `O=C(Cc1ccc(Cl)c(Cl)c1)N(CCc1ccc(Cl)c(Cl)c1)CCN1CCCC1`, the GI50 with BT-549 was 2.63 µM (inactive).

For the compound `Nc1c(O)c(C(=O)O)cc2ccccc12`, the GI50 in the test on BT-549 is 21.3 µM (inactive).

In the case of `COc1cc(-c2cccs2)sc1-c1cccs1`, the GI50 is 30 µM (inactive) with DMS-114; 36.2 µM (inactive) in the test on SNB-78; 32.8 µM (inactive) with M19-MEL; 8.17 µM (inactive) with DLD-1; 1.58 µM (inactive) in the test with HOP-18; 12.5 µM (inactive) with DMS-273.

Take `Cc1cc(=O)nc(Sc2ccc([N+](=O)[O-])cc2[N+](=O)[O-])[nH]1`: the GI50 in the test on BT-549 is 12.8 µM (inactive).

Consider `COc1ccc(/C=C2\C(=O)N(C(=O)c3ccc(NC(C)=O)cc3)N=C2C)cc1OC`, for which the GI50 was > 100 µM (inactive) in the test on XF498; > 100 µM (inactive) in the test with DMS-114; > 100 µM (inactive) with SNB-78; > 100 µM (inactive) with M19-MEL; > 100 µM (inactive) in the test on DLD-1; 14.6 µM (inactive) with HOP-18. Also, in the test with DMS-273, the GI50 was > 100 µM (inactive).

Regarding `O=C(Nc1nnn[nH]1)c1nc(O)cc(-c2ccccc2)n1`, the GI50 with XF498, in the test with DMS-114, in the test with SNB-78, in the test on M19-MEL and in the test with DLD-1 was > 100 µM (inactive) throughout.

On to `Cc1cnc(NCCCN(C)C)c2c1[nH]c1ccc3cc(O)ccc3c12`, for which the GI50 with XF498 was 0.222 µM (active); with DMS-114, 0.0962 µM (active); in the test with SNB-78 it was 0.929 µM (active); in the test with M19-MEL, 0.383 µM (active); in the test on BT-549, 1.52 µM (inactive); in the test on DLD-1, 0.49 µM (active). For the same compound, the GI50 in the test on HOP-18 was 1.43 µM (inactive); with DMS-273, 0.462 µM (active).

Take `CCOC(=O)C1=C(C)N(NC(N)=O)C2(N)N(NC(N)=O)C(C)=C(C(=O)OCC)C12C(=O)OCC` (configuration not stated): the GI50 in the test with XF498, in the test on DMS-114, in the test on M19-MEL, with DLD-1 and with DMS-273 was > 100 µM (inactive) in each case.

For `CCOC(=O)CSc1nc2ccccc2c(=O)n1N`, the GI50 in the test on BT-549 is > 100 µM (inactive).

Turning to `O=[N+]([O-])c1nccn1COCCBr`, the GI50 in the test on XF498, in the test with DMS-114, in the test on M19-MEL and with DLD-1 was > 100 µM (inactive) in each case.

Regarding `S=c1sc2c(Cl)nc(Cl)nc2n1-c1ccccc1`, the GI50 in the test with XF498 is 94.2 µM (inactive); in the test on DMS-114 it was 14.2 µM (inactive); in the test on SNB-78, 13.3 µM (inactive); in the test on M19-MEL, 16.4 µM (inactive); in the test on DLD-1, 16.2 µM (inactive); with HOP-18, > 100 µM (inactive). In the test on DMS-273, the GI50 is 45.9 µM (inactive).

In the case of `CCN1CC2=C(NC(=S)NC2c2ccc(Cl)cc2)/C(=C/c2ccc(Cl)cc2)C1` (configuration not stated), the GI50 with BT-549 is > 100 µM (inactive).

`Nc1ncc(CN2CCCC2)c(-c2ccccc2O)n1`: the GI50 with XF498 is > 750 µM (inactive); in the test with DMS-114, > 750 µM (inactive); in the test with M19-MEL it was > 750 µM (inactive); with DLD-1, > 750 µM (inactive); with HOP-18 it was 433 µM (inactive); in the test on DMS-273 it was > 750 µM (inactive).

On to `CCOC(=O)C1(Cc2ccccc2)CCCCCN1` (configuration not stated), for which the GI50 in the test with DMS-114, with SNB-78, in the test on M19-MEL, in the test on RXF 631, in the test on DLD-1 and with HOP-18 was > 100 µM (inactive) each time. The GI50 in the test with DMS-273 was > 100 µM (inactive).

Take `CSC1=C(C(=O)Nc2ccc(Cl)cc2)C(N)=NC1=O`: in the test on BT-549, the GI50 is > 100 µM (inactive).

With `C=C1CC2(CC(c3ccccc3OC)OC(c3ccccc3OC)C2)OC1=O` (configuration not stated), the GI50 in the test on BT-549 is 1.64 µM (inactive).

As to `O=C(CCC(=O)c1ccsc1)c1ccsc1`, the GI50 in the test with BT-549 was > 100 µM (inactive).

As for `c1sc(NC2=NCCO2)c2c1CCCC2`, the GI50 with BT-549 was > 100 µM (inactive).

Regarding `O=C(c1ccncc1)C1C(=O)c2ccccc2C1C1(O)c2ccccc2CC1C(O)c1ccncc1` (configuration not stated), the GI50 with BT-549 is 45.9 µM (inactive).

Take `Cc1ccc2c(c1)OC1Nc3ccccc3C1=C2O` (configuration not stated): the GI50 with BT-549 is 19.7 µM (inactive).

For the compound `C=C1CC2CC(O)CC(C1)C2` (configuration not stated), the GI50 with XF498, in the test on DMS-114, with SNB-78, with M19-MEL, in the test on DLD-1 and with HOP-18 was > 100 µM (inactive) throughout. For the same compound, the GI50 in the test with DMS-273 is > 100 µM (inactive).

Consider `O=C(COc1ccc(OCC(=O)N/N=C/c2ccc(-c3ccc(Cl)cc3Cl)o2)c(Cl)c1)N/N=C/c1ccc(-c2ccc(Cl)cc2Cl)o1`, for which the GI50 with BT-549 was 83.9 µM (inactive).

For `Cc1cccc2c1C(=O)OC2(C)c1cccc2ccccc12` (configuration not stated), the GI50 was 4.86 µM (inactive) in the test with XF498; 43.1 µM (inactive) with DMS-114; 73.6 µM (inactive) in the test on SNB-78; 50 µM (inactive) in the test on M19-MEL; 30.5 µM (inactive) with DLD-1; > 100 µM (inactive) in the test on HOP-18.

On to `Cc1cc2c(cc1N)C(C)C1(CCC(=O)N2Cc2ccccc2)OCCO1` (configuration not stated), for which, in the test on BT-549, the GI50 is > 100 µM (inactive).

Consider `CCCCC(C(=O)CCC(=O)Nc1ccc(Cl)c(Cl)c1)C(=O)C(C)C` (configuration not stated), for which the GI50 was > 100 µM (inactive) with DMS-114; > 100 µM (inactive) in the test on SNB-78; > 100 µM (inactive) in the test with M19-MEL; > 100 µM (inactive) with DLD-1; > 100 µM (inactive) in the test with HOP-18; 52.4 µM (inactive) in the test on DMS-273.

Turning to `COC1C(OC(C)=O)CC(=O)OC(C)C/C=C/C=C\C(O)C(C)CC(CC=O)C1OC1OC(C)C(OC2CC(C)(O)C(OC(=O)CC(C)C)C(C)O2)C(N(C)C)C1O` (configuration not stated), in the test with BT-549, the GI50 is > 100 µM (inactive).

Consider `O=C1c2ccccc2C(=O)N1C(=S)c1ccccc1`, for which, in the test with BT-549, the GI50 was > 100 µM (inactive).

Turning to `COc1ccc(/N=N/C(=O)NC(Cc2ccccc2)C(=O)O)cc1` (configuration not stated), the GI50 in the test with BT-549 is > 100 µM (inactive).

For `C=CCN1CCC(c2cc(C(=O)OCC)[nH]c2-c2cc(C)no2)C1=O` (configuration not stated), the GI50 with BT-549 is > 100 µM (inactive).

On to `CC[C@@H]1CSC(/C=C/C2OC3OC(C)(C)OC3C3OC(C)(C)OC23)=N1` (some centres not stated), for which the GI50 in the test with BT-549 is 3.58 µM (inactive).

Consider `Nc1nc(N)c2ncn(CCCC(c3ccccc3)P(=O)(O)O)c2n1` (configuration not stated), for which the GI50 in the test on DMS-114, with SNB-78, in the test on M19-MEL, in the test on DLD-1, with HOP-18 and in the test on DMS-273 was > 100 µM (inactive) throughout.

For the compound `CC(=O)C1C(=O)C(=O)N(c2ccccc2)C1=O` (configuration not stated), the GI50 with BT-549 is > 100 µM (inactive).

Regarding `O=C(O)CNC(=O)c1c2ccccc2nc2ccccc12`, in the test with BT-549, the GI50 was 20.8 µM (inactive).

Take `Cc1c2cc[n+](C)c(C)c2cc2c1[nH]c1ccccc12`: the GI50 is 1.57 µM (inactive) in the test with DMS-114; 5.05 µM (inactive) in the test on SNB-78; 3.44 µM (inactive) in the test on M19-MEL; 2.44 µM (inactive) with BT-549; 10.5 µM (inactive) with DLD-1; 0.586 µM (active) in the test with HOP-18. In the test on DMS-273, the GI50 is 3.63 µM (inactive).

Take `CC1(C)CC2=NC(SSC3=C(C#N)C(c4ccc(Br)cc4)C4=C(O)CC(C)(C)CC4=N3)=C(C#N)C(c3ccc(Br)cc3)C2=C(O)C1` (configuration not stated): in the test on BT-549, the GI50 is > 100 µM (inactive).

With `C/C(=N\NC(=O)C[n+]1ccccc1)c1sc(-c2nc(C)c(/C(C)=N/NC(=O)C[n+]3ccccc3)s2)nc1C`, the GI50 in the test with DMS-114 was 38.3 µM (inactive); with SNB-78, > 100 µM (inactive); with M19-MEL, > 100 µM (inactive); with DLD-1, > 100 µM (inactive).

Turning to `CCOC(=O)C1=C(C)C2C=C(c3cccs3)CC(c3ccc(Cl)cc3)=C2OC1=O` (configuration not stated), in the test with BT-549, the GI50 was 31.5 µM (inactive).

Consider `CN1CCCCC1CCN1c2ccccc2Sc2ccc([S+](C)[O-])cc21` (configuration not stated) [MESORIDAZINE], for which, in the test on BT-549, the GI50 is > 100 µM (inactive).

On to `CC(=O)O[C@H]1C(=O)[C@@]2(C)[C@H]([C@H](OC(=O)c3ccccc3)[C@]3(O)C[C@H](OC(=O)[C@H](O)[C@@H](NC(=O)c4ccccc4)c4ccccc4)C(C)=C1C3(C)C)[C@]1(OC(C)=O)CO[C@@H]1C[C@@H]2O` [PACLITAXEL], for which the GI50 in the test on XF498 was 0.00348 µM (active); in the test with SNB-78 it was 0.00982 µM (active); in the test with BT-549, 0.0327 µM (active); with DLD-1 it was 0.0448 µM (active); in the test on HOP-18, 0.157 µM (active); with DMS-273 it was 0.00313 µM (active).

These data come from ChEMBL document CHEMBL1201862, “PubChem BioAssay data set” (2004).
